# According to publication PMC5154799 (International journal of antimicrobial agents, 2016):
# Target: thioredoxin reductase (TrxR, TVAG_474980) (Trichomonas vaginalis, UniProt A0A8U0WQ27)
# Experiment: DTNB reduction assay with NADPH, recombinant TrxR and Trx, absorbance at […] nm
# Assay type: biochemical
smiles,measurement,value
"CC(=O)OC[C@H]1O[C@@H]([S-])[C@H](OC(C)=O)[C@@H](OC(C)=O)[C@@H]1OC(C)=O.CCP(CC)CC.[Au+] [AF, auranofin]",IC50,85 nM
